# Experimental data published in patent US20220265176A1, “A NOVEL, ORGAN-ON-A-CHIP DEVICE FOR ASSESSING TRANS-EPITHELIAL TRANSPORT, AND USES THEREOF” (The Johns Hopkins University, priority 2019, published 2022).
# Tests used:
# ADPKD kidney = details: reference [16]; cited from earlier work
# ADPKD cystic cells = experiment: MFKP pump performance curve, ADPKD cystic cells; type: cell-based, human
# Description: (§1) A micro-fluidic device to measure transepithelial fluid absorption activities of the kidney epithelium while allowing for cell imaging andvsimultaneous control of fluid pressure, shear stress (FSS), and media chemical composition is described herein (see FIG. 2A-2F). The device measures fluidic flux across the epithelium as a function of apical and basal pressures using a microcapillary (MC) connected to port 2 or 3 (FIG. 2C). The MC measures both the trans-epithelial fluid flux and the hydraulic pressure (FIG. 2C, 2F). […] Calibration experiments are performed to obtain capillary action contribution from the MC to the basal pressure and the static pressure profiles of each device for the shear flow condition considered.
# (§2) Next, it was considered whether the device is useful for understanding fluidic pumping by primary human normal kidney and ADPKD cystic cells. […] The barrier function of the epithelia was again assessed using dye permeation assay (FIG. 15A-15I).
# Port 1 is closed. (4B) Schematic of the setup, which allows measurement of trans-epithelial fluid flux from the basal to apical chamber. (4C) Schematic representation of a cystic kidney derived from ADPKD patients.
# V2R = V2R (Homo sapiens, UniProt P30518); details: reference [18]; cited from earlier work
# WTm cells = experiment: MFKP pump performance curve, wild type medulla (WTm) primary kidney cells; type: cell-based, human
# Description: as §1, §2
# (§3) Port 1 is closed. (4B) Schematic of the setup, which allows measurement of trans-epithelial fluid flux from the basal to apical chamber. (4C) Schematic representation of a cystic kidney derived from ADPKD patients. (4D) Schematic representation of a kidney derived from normal human patients. (4E) The MC is connected to port 3 in the MFKP. Port 1 is closed. (4F) This setup enables measurement of trans-epithelial fluid flux from apical to basal chamber.
# WTc cells = experiment: MFKP pump performance curve, wild type cortex (WTc) primary kidney cells; type: cell-based, human
# Description: as §1, §2, §3
# MDCK-II epithelium = experiment: Micro-fluidic Kidney Pump (MFKP) pump performance curve, MDCK-II epithelium; type: cell-based
# Description: as §1
# cysts = details: mouse models of ADPKD; AVP treatment; reference [15]; cited from earlier work
# [1] = mature ADPKD epithelium, 1 nM TVP on basolateral side for 1 hour, vs control
# Sequence of V2R (P30518 whole entry, species assumed): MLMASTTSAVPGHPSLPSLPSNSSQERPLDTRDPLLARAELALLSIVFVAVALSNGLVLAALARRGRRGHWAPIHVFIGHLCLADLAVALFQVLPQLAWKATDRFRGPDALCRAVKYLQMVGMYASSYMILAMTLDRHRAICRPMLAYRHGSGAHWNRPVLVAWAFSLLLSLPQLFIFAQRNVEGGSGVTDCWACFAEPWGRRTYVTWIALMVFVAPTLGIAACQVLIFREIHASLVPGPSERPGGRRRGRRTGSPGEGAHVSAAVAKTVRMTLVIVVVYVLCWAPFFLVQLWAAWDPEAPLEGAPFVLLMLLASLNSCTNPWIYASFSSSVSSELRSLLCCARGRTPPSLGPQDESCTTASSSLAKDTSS
smiles,measurement,setting,value
Cc1ccccc1C(=O)Nc1ccc(C(=O)N2CCCC(O)c3cc(Cl)ccc32)c(C)c1 (stereo not drawn) [Tolvaptan],total kidney volume,ADPKD kidney,decreased
same,J0 (fluid flux at zero pressure gradient),ADPKD cystic cells; [1],decreased
same,stall pressure ΔP*,ADPKD cystic cells; [1],decreased
same,cAMP levels,V2R,decrease
C[C@@H]1O[C@@H](O[C@H]2C[C@@H](O)[C@]3(CO)[C@H]4[C@H](O)C[C@]5(C)[C@@H](C6=CC(=O)OC6)CC[C@]5(O)[C@@H]4CC[C@]3(O)C2)[C@H](O)[C@H](O)[C@H]1O [Ouabain],J0,WTm cells; overnight incubation with 274 μM Ouabain (control 4.3),1.0 μL/min/cm2
same,ΔP*,WTm cells; overnight incubation with 274 μM Ouabain (control 56 Pa),42 Pa
same,equilibrium fluid flux (J0),WTc cells; after Ouabain induced inhibition of NKA (control 4.3),1.7 μL/min/cm^2
same,stall pressure ΔP*,WTc cells; after Ouabain induced inhibition of NKA (control 157 Pa),34 Pa
"NC(=O)CC[C@@H]1NC(=O)[C@H](Cc2ccccc2)NC(=O)[C@H](Cc2ccc(O)cc2)NC(=O)[C@@H](N)CSSC[C@@H](C(=O)N2CCC[C@H]2C(=O)N[C@@H](CCCN=C(N)N)C(=O)NCC(N)=O)NC(=O)[C@H](CC(N)=O)NC1=O [AVP, arginine vasopressin]",pump performance curve (PPC),"MDCK-II epithelium; MDCK-II epithelium, chemical perturbation (addition of AVP)",changes substantially
same,J0 and ΔP*,WTm cells; basolateral treatment of AVP,variable response
same,stall pressure ΔP*,"ADPKD cystic cells; ADPKD cells, basolateral treatment of AVP",−300 Pa
same,basal-to-apical fluid pumping,"ADPKD cystic cells; ADPKD epithelium, basolateral treatment of AVP",massive surge
same,J0 and ΔP*,WTc cells; basolateral treatment of AVP,variable response
same,cyst growth,cysts,grow bigger
C[C@@H](N)[C@H]1CC[C@H](C(=O)Nc2ccncc2)CC1 [Y-27367],fluid flux,"MDCK-II epithelium; MDCK-II epithelium in MFKP, addition of Y-27367",did not influence fluid flux significantly
